Assay results: patent publication US20230129359A1, “MUSCARINIC RECEPTOR 4 ANTAGONISTS AND METHODS OF USE” (Neurocrine Biosciences, Inc., priority 2020, published 2023)

target: T1, human M4 receptor (Homo sapiens, UniProt P08173); assay: Radioligand ([3H]N-methylscopolamine) binding assay, membranes from CHO cells expressing human M4 receptor; conditions: not given
T1 construct: expressed in transfected cells; host or cells: CHO cells
T1 sequence (P08173 1-479): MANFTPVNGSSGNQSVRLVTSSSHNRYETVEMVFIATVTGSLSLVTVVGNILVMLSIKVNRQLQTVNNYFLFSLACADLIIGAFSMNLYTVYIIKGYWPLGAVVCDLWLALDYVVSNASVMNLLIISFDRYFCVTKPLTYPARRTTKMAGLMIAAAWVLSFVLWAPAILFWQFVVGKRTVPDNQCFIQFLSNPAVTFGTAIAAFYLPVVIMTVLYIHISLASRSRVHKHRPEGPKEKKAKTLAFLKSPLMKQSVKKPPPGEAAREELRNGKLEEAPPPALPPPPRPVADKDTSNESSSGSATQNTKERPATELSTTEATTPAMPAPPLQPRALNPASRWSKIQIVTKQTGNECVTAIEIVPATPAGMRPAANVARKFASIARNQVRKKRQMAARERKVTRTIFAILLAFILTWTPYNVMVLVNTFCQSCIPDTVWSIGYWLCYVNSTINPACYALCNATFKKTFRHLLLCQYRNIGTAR
Procedure, shortened: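 Competition binding used CHO-cell membranes expressing human M4 with 1.5 nM [3H]N-methylscopolamine and twelve compound concentrations ([…]). Incubation was 90 minutes at 37 °C in 50 mM HEPES, 100 mM NaCl, 5 mM MgCl2, 1 mM EDTA, pH 7.4. Bound ligand was collected by filtration onto PEI-treated glass fibre for Ki.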

Row | Structure (SMILES) | Ki [nM]
1 | O=C(OC1CC2(C1)CN(Cc1ccccc1)C2)N1C2COCC1CN(c1cnc(C(F)(F)F)cn1)C2 [Compound 168, 2-benzyl-2-azaspiro[3.3]heptan-6-yl 7-[5-(trifluoromethyl)pyrazin-2-yl]-3-oxa-7,9-diazabicyclo[3.3.1]nonane-9-carboxylate] | 100 to 1000

same assay, conditions: Ki against human M4 receptor; membranes from CHO cells; tritiated N-methylscopolamine 1.5 nM; read-out: K

Row | Structure (SMILES) | Ki [nM]
2 | C[C@@H]1CN(c2ncc(OC(F)(F)F)cn2)C[C@H](C)N1C(=O)OC1CC2(C1)CN(Cc1ccccc1)C2 [Compound 498, 2-benzyl-2-azaspiro[3.3]heptan-6-yl (2R,6S)-2,6-dimethyl-4-[5-(trifluoromethoxy)pyrimidin-2-yl]piperazine-1-carboxylate] | < 10
3 | C[C@@H]1CN(c2cnc(C(F)(F)F)cn2)C[C@H](C)N1C(=O)OC1CC2(C1)CN(Cc1ccc(F)cc1)C2 [Compound 399, 2-[(4-fluorophenyl)methyl]-2-azaspiro[3.3]heptan-6-yl (2R,6S)-2,6-dimethyl-4-[5-(trifluoromethyl)pyrazin-2-yl]piperazine-1-carboxylate] | 10 to 100
4 | COC(=O)c1ccc(CN2CC3(CC(NC(=O)N4[C@H](C)CN(c5ncc(C(F)(F)F)cn5)C[C@@H]4C)C3)C2)cc1 [Compound 320, methyl 4-[(6-{[(2R,6S)-2,6-dimethyl-4-[5-(trifluoromethyl)pyrimidin-2-yl]piperazine-1-carbonyl]amino}-2-azaspiro[3.3]heptan-2-yl)methyl]benzoate] | 100 to 1000
5 | C[C@@H]1CN(c2nc3ccc(C(F)(F)F)cc3o2)[C@@H](C)CN1C(=O)OC1CC2(C1)CN(Cc1ccccc1)C2 [Compound 430, 2-benzyl-2-azaspiro[3.3]heptan-6-yl (2R,5S)-2,5-dimethyl-4-[6-(trifluoromethyl)-1,3-benzoxazol-2-yl]piperazine-1-carboxylate] | < 10
6 | C[C@@H]1CN(c2ncc(C(F)(F)F)cn2)C[C@H](C)N1C(=O)NC1CC2(C1)CN(CC13CC4CC(CC(C4)C1)C3)C2 [Compound 327, (2R,6S)-N-[2-(adamantan-1-ylmethyl)-2-azaspiro[3.3]heptan-6-yl]-2,6-dimethyl-4-[5-(trifluoromethyl)pyrimidin-2-yl]piperazine-1-carboxamide] | 10 to 100
7 | C[C@@H]1CN(c2ncc(C(F)(F)F)cn2)C[C@H](C)N1C(=O)OC1CC2(C1)CN(CCC(C)(C)C)C2 [Compound 149, 2-(3,3-dimethylbutyl)-2-azaspiro[3.3]heptan-6-yl (2R,6S)-2,6-dimethyl-4-[5-(trifluoromethyl)pyrimidin-2-yl]piperaizne-1-carboxylate] | 100 to 1000
8 | COc1ccc2nc(N3C[C@@H](C)N(C(=O)OC4CC5(C4)CN(Cc4ccccc4)C5)[C@@H](C)C3)cnc2c1 [Compound 379, 2-benzyl-2-azaspiro[3.3]heptan-6-yl (2R,6S)-4-(6-methoxyquinoxalin-2-yl)-2,6-dimethylpiperazine-1-carboxylate] | 10 to 100
9 | C[C@@H]1CN(c2ccc(C(F)(F)F)cc2)CCN1C(=O)OC1CC2(C1)CN(Cc1ccccc1)C2 [Compound 528, 2-benzyl-2-azaspiro[3.3]heptan-6-yl (2R)-2-methyl-4-[4-(trifluoromethyl)phenyl]pipera-zine-1-carboxylate] | 10 to 100
10 | C[C@@H]1CN(c2ncc(C(F)(F)F)cn2)C[C@H](C)N1C(=O)OC1(C(F)F)CC2(CN(Cc3ccccc3)C2)C1 [Compound 341, 2-benzyl-6-(difluoromethyl)-2-azaspiro[3.3]heptan-6-yl (2R,6S)-2,6-dimethyl-4-[5-(trifluoromethyl)pyrimidin-2-yl]piperazine-1-carboxylate] | 10 to 100
11 | C[C@@H]1CN(c2ncc(C(F)(F)F)cn2)C[C@H](C)N1C(=O)NC1CC2(C1)CN(Cc1cccnc1Cl)C2 [Compound 291, (2R,6S)-N-{2-[(2-chloropyridin-3-yl)methyl]-2-azaspiro[3.3]heptan-6-yl}-2,6-dimethyl-4-[5-(trifluoromethyl)pyrimidin-2-yl]piperazine-1-carboxamide] | 100 to 1000
12 | C[C@@H]1CN(c2nc3ccc(C(F)(F)F)cc3s2)C[C@H](C)N1C(=O)OC1CC2(C1)CN(Cc1ccc(F)cc1)C2 [Compound 384, 2-[(4-fluorophenyl)methyl]-2-azaspiro[3.3]heptan-6-yl (2R,6S)-2,6-dimethyl-4-[6-(trifluoromethyl)-1,3-benzothiazol-2-yl]piperazine-1-carboxylate] | < 10
13 | C[C@@H]1CN(c2ncc(C(F)(F)F)cc2F)C[C@H](C)N1C(=O)NC1CC2(C1)CN(Cc1ccccc1)C2 [Compound 227, (2R,6S)-N-{2-benzyl-2-azaspiro[3.3]heptan-6-yl}-4-[3-fluoro-5-(trifluoromethyl)pyridin-2-yl]-2,6-dimethylpiperazine-1-carboxamide] | < 10
14 | COc1ccc2nc(N3C[C@@H](C)N(C(=O)OC4CC5(C4)CN(Cc4ccccc4)C5)C[C@@H]3C)cnc2c1 [Compound 173, 2-benzyl-2-azaspiro[3.3]heptan-6-yl (2R,5S)-4-(6-methoxyquinoxalin-2-yl)-2,5-dimethylpiperazine-1-carboxylate] | 10 to 100
15 | C[C@@H]1CN(c2ccc([N+](=O)[O-])cn2)C[C@H](C)N1C(=O)OC1CC2(C1)CN(Cc1ccccc1)C2 [Compound 163, 2-benzyl-2-azaspiro[3.3]heptan-6-yl (2R,6S)-2,6-dimethyl-4-(5-nitropyridin-2-yl)piperazine-1-carboxylate] | 10 to 100
16 | [2H]c1c([2H])c([2H])c(CN2CC3(CC(NC(=O)N4[C@H](C)CN(c5ncc(C(F)(F)F)cn5)C[C@@H]4C)C3)C2)c([2H])c1[2H] [Compound 273, (2R,6S)-N-{2-[(^2H5)benzyl]-2-azaspiro[3.3]heptan-6-yl}-2,6-dimethyl-4-[5-(trifluoromethyl)pyrimidin-2-yl]piperazine-1-carboxamide] | < 10
17 | C[C@@H]1CN(c2cnc(C(F)(F)F)cn2)[C@@H](C)CN1C(=O)OC1(C(F)F)CC2(CN(Cc3ccccc3)C2)C1 [Compound 347, 2-benzyl-6-(difluoromethyl)-2-azaspiro[3.3]heptan-6-yl (2R,5S)-2,5-dimethyl-4-[5-(trifluoromethyl)pyrazin-2-yl]piperazine-1-carboxylate] | 100 to 1000
18 | C[C@@H]1CN(c2nc3ccc(C(F)(F)F)cc3s2)C[C@H](C)N1C(=O)OC1CC2(C1)CN(Cc1ccccc1)C2 [Compound 364, 2-benzyl-2-azaspiro[3.3]heptan-6-yl (2R,6S)-2,6-dimethyl-4-[6-(trifluoromethyl)-1,3-benzothiazol-2-yl]piperazine-1-carboxylate] | < 10
19 | C[C@@H]1CN(c2ncc(C#N)cn2)[C@@H](C)CN1C(=O)OC1CC2(C1)CN(Cc1ccccc1)C2 [Compound 138, 2-benzyl-2-azaspiro[3.3]heptan-6-yl (2R,5S)-4-(5-cyanopyrimidin-2-yl)-2,5-dimethylpiperazine-1-carboxylate] | 10 to 100
20 | C[C@@H]1CN(c2cnc3ccccc3n2)CCN1C(=O)NC1CC2(C1)CN(Cc1ccccc1)C2 [Compound 224, (2R)-N-{2-benzyl-2-azaspiro[3.3]heptan-6-yl}-2-methyl-4-(quinoxalin-2-yl)piperazine-1-carboxamide] | 10 to 100
21 | C[C@@H]1CN(c2nc3ncc(C(F)(F)F)cc3s2)C[C@@H](C)N1C(=O)OC1CC2(C1)CN(Cc1ccccc1)C2 [Compound 432, 2-benzyl-2-azaspiro[3.3]heptan-6-yl (2R,6R)-2,6-dimethyl-4-[6-(trifluoromethyl)-[1,3]thiazolo[4,5-b]pyridin-2-yl]piperazine-1-carboxylate] | 10 to 100
